Results on 13 molecules are retold here after PMC10728849, “Solubility of Some Drugs in Aqueous Solutions of Choline Chloride-Based Deep Eutectic Solvent Systems: Experimental Data, Modeling, and the Impact of Solution pH” (Iranian Journal of Pharmaceutical Research : IJPR, 2023).

Details of data set [1]: method as in doi:10.1016/j.molliq.2018.07.065. The note with it: cited from earlier work.
Data set [2] in a line: Solubility measurement by shake flask method (UV spectrophotometry). The note with it: for solubility at 48 h: 37 °C, thermodynamic from solid, 37 ± 1°C; for SChCl-G50%/ SChCl-G10% / SChCl-U50%/ SChCl-U10%: solubility ratio in DES50% to DES10%; for SChCl-G50%/ SChCl-G10%: ChCl-G; for SChCl-U50%/ SChCl-U10%: ChCl-U. The protocol:
A DES composed of ChCl + G/U was selected for this study. It was prepared based on a previously reported method in the literature ([13], [14]). First, the components of DESs, including ChCl as a hydrogen bond acceptor (HBA) and G/U as a hydrogen bond donor (HBD), were weighed using an analytical balance (ATX224, Shimadzu, Japan) with 1×10^-4 g precision at a specific mole fraction of 1:2, respectively. The measured amounts of these compositions were added into a beaker and sealed firmly with Parafilm. Then, it was heated at 70°C while stirring at 550 rpm for 60 minutes until a clear and uniform liquid was formed. At the end of the synthesis process of DES, the prepared liquids were cooled and used as a new class of cosolvents for drug solubilization.
Many different techniques of solubility measurements have been reported in the literature. The shake flask is a popular and convenient method for solubility determination ([21]), which was applied in this study. First, solvent mixtures were made by weighing 10:90% and 50:50% mass fractions of DES: water, respectively. Excess amounts of poorly soluble drugs were added into glass vials containing 4 g prepared solvent mixtures. All of the vials were shaken on a shaker (Heidolph, Schwabach, Germany) and placed in an incubator (Kimia Idea Pardaz Azarbaijan (KIPA) co., Tabriz, Iran) at 37 ± 1°C and 180 rpm for 48 hours. […] The saturated solutions were centrifuged at 6000 rpm for 15 minutes (Tomy Micro One, Tokyo, Japan) and filtered in some cases (Filter Bioscience Membrane Technology Co., 0.22 µm). […] Finally, the absorbance of each solution was converted to concentration using the calibration curves, taking into account the dilution factor. The solubility of each drug was then calculated. Solubilities were determined three times in all cases, and the mean ± standard deviation of data was reported.

The conditions of data set [3]: cited from earlier work.
The nature of data set [4]: pH of saturated solutions (final pH of dissolution medium). The class given is physicochemical. An excerpt:
Acidic and basic compounds can change the pH of the dissolution medium in water.

[5] abbreviates: aqueous with cosolvent or surfactant or cyclodextrin, Water + ChCl-G10%, 10:90% mass fraction choline chloride-glycerol (1:2) DES:water.
Where [6] appears, read: aqueous with cosolvent or surfactant or cyclodextrin, Water+ ChCl-G50%, 50:50% mass fraction choline chloride-glycerol (1:2) DES:water.
The mark [7] stands for this setting: pH 7.5, aqueous with cosolvent or surfactant or cyclodextrin, Water + ChCl-U10%, 10:90% mass fraction choline chloride-urea (1:2) DES:water.
The mark [8] stands for this setting: pH 8.3, aqueous with cosolvent or surfactant or cyclodextrin, Water+ ChCl-U50%, 50:50% mass fraction choline chloride-urea (1:2) DES:water.

≈ marks a conversion by molar mass, not a printed value. Marks after values point to notes of the source that are not given here.

Usually solubility stands for the concentration that dissolves in the medium under given conditions. For the molecule `c1ccc2c(c1)Nc1ccccc1S2` [Phenothiazine, phenothiazine], the “Solubility, Water” value in data set [1] was 0.003 ± 0.0004 ^a g/L. The solubility at 48 h in data set [2] (setting [5]) came out at 5 µg/mL; in data set [2] (setting [6]), 99 ± 10 µg/mL (≈ 497 µM); in data set [2] (setting [7]), 23 ± 0.3 µg/mL; in data set [2] (setting [8]), 135 ± 15 µg/mL (≈ 677 µM). Besides, the “SChCl-G50%/ SChCl-G10%” value in data set [2] is given as 18.06. Further, the “SChCl-U50%/ SChCl-U10%” value in data set [2] was 5.83.

Take `O=C1NC(=O)C(c2ccccc2)(c2ccccc2)N1` [Phenytoin, phenytoin]: the “Solubility, Water” value in data set [1] was 0.056 ± 0.0053 ^a g/L. Besides, the solubility at 48 h in data set [2] (setting [5]) was found to be 60 ± 5 µg/mL; in data set [2] (setting [6]) it was 255 ± 20 µg/mL (≈ 1010 µM); in data set [2] (setting [7]) it was 104 ± 8 µg/mL; in data set [2] (setting [8]), 753 ± 60 µg/mL (≈ 2980 µM). Also, the “SChCl-G50%/ SChCl-G10%” value in data set [2] turned out to be 4.24. Further, the “SChCl-U50%/ SChCl-U10%” value in data set [2] turned out to be 7.25.

As to `O=C(O)c1ccccc1` [Benzoic acid, benzoic acid], in data set [2], the “SChCl-G50%/ SChCl-G10%” value came out at 1.76 and the “SChCl-U50%/ SChCl-U10%” value was determined as 3.16.

Turning to `CC(=O)N1CCN(c2ccc(OCC3COC(Cn4ccnc4)(c4ccc(Cl)cc4Cl)O3)cc2)CC1` (stereo not drawn) [Ketoconazole, ketoconazole], the “Solubility, Water” value in data set [1] is listed as 0.008 ± 0.0008 ^a g/L. The solubility at 48 h is 35 ± 1 µg/mL in data set [2] (setting [5]), 77 ± 7 µg/mL (≈ 145 µM) in data set [2] (setting [6]), 28 ± 1 µg/mL in data set [2] (setting [7]) and 62 ± 6 µg/mL (≈ 117 µM) in data set [2] (setting [8]). Further, in data set [2], the “SChCl-G50%/ SChCl-G10%” value stood at 2.16. The “SChCl-U50%/ SChCl-U10%” value in data set [2] is 2.24.

By pKa is commonly meant the negative logarithm of the acid dissociation constant. In the case of `O=C(O)CO` [Glycolic acid], in data set [3], the pKa is listed as 3.6.

Consider `COc1ccccc1OCCNCC(O)COc1cccc2[nH]c3ccccc3c12` (stereo not drawn) [Carvedilol, carvedilol], for which, in data set [1], the “Solubility, Water” value is on record as 0.032 ± 0.0030 ^a g/L. Also, the solubility at 48 h in data set [2] (setting [5]) is 159 ± 12 µg/mL; in data set [2] (setting [6]) it was 873 ± 27 µg/mL (≈ 2150 µM); in data set [2] (setting [7]), 91 ± 7 µg/mL; in data set [2] (setting [8]), 620 ± 20 µg/mL (≈ 1530 µM). Further, the “SChCl-G50%/ SChCl-G10%” value in data set [2] amounted to 5.48. For the same molecule, in data set [2], the “SChCl-U50%/ SChCl-U10%” value was determined as 6.79.

`CC(C)Cc1ccc(C(C)C(=O)O)cc1` (stereo not drawn) [Ibuprofen]: the “Solubility, Water” value in data set [1] was 0.104 ± 0.0035 ^a g/L. Also, the solubility at 48 h in data set [2] (setting [5]) was 141 ± 8 µg/mL; in data set [2] (setting [6]), 242 ± 4 µg/mL (≈ 1170 µM); in data set [2] (setting [7]), 1300 ± 263 µg/mL; in data set [2] (setting [8]), 3890 ± 622 µg/mL (≈ 18900 µM). Also, the results for the “pH of saturated solution” value in data set [4] (in ChCl-U10%), in data set [4] (in ChCl-U50%) and in data set [4] (in water) were 4.5, 4.9 and 6.4, respectively.

`O=C(O)c1ccccc1O` [Salicylic acid, salicylic acid]: the “Solubility, Water” value in data set [1] is 2.755 ± 0.3031 ^a g/L. Besides, the solubility at 48 h was 7060 ± 422 µg/mL in data set [2] (setting [5]), 12700 ± 265 µg/mL (≈ 92200 µM) in data set [2] (setting [6]), 9840 ± 555 µg/mL in data set [2] (setting [7]) and 32400 ± 671 µg/mL (≈ 234000 µM) in data set [2] (setting [8]). Further, the “SChCl-G50%/ SChCl-G10%” value in data set [2] was 1.80. Further, the “SChCl-U50%/ SChCl-U10%” value in data set [2] is 3.29.

As to `CN1CC(=O)N2[C@H](c3ccc4c(c3)OCO4)c3[nH]c4ccccc4c3C[C@@H]2C1=O` [Tadalafil, tadalafil], the “Solubility, Water” value in data set [1] is on record as 0.016 ± 0.0019 ^a g/L. In addition, the solubility at 48 h in data set [2] (setting [5]) came out at 17 ± 2 µg/mL; in data set [2] (setting [6]), 91 ± 6 µg/mL (≈ 234 µM); in data set [2] (setting [7]), 18 ± 2 µg/mL; in data set [2] (setting [8]) it was 151 ± 10 µg/mL (≈ 388 µM). Moreover, the “SChCl-G50%/ SChCl-G10%” value in data set [2] amounted to 5.25. Moreover, the “SChCl-U50%/ SChCl-U10%” value in data set [2] was 8.42.

With `CN1C(C(=O)Nc2ccccn2)=C(O)c2ccccc2S1(=O)=O` [Piroxicam, piroxicam], in data set [1], the “Solubility, Water” value is 0.032 ± 0.0014 ^a g/L. For the same molecule, the solubility at 48 h in data set [2] (setting [5]) was 32 ± 2 µg/mL; in data set [2] (setting [6]), 40 ± 1 µg/mL (≈ 121 µM); in data set [2] (setting [7]), 571 ± 35 µg/mL; in data set [2] (setting [8]), 2070 ± 36 µg/mL (≈ 6250 µM). The “SChCl-G50%/ SChCl-G10%” value in data set [2] came to 1.28. Also, the “SChCl-U50%/ SChCl-U10%” value in data set [2] came out at 3.63. Also, the “pH of saturated solution” value turned out to be 6.1 in data set [4] (in ChCl-U10%), 6.2 in data set [4] (in ChCl-U50%) and 5.6 in data set [4] (in water).

As for `NC(=O)N1c2ccccc2C=Cc2ccccc21` [Carbamazepine, carbamazepine], in data set [1], the “Solubility, Water” value is on record as 0.296 ± 0.0139 ^a g/L. Also, the solubility at 48 h in data set [2] (setting [6]) came to 2730 ± 230 µg/mL (≈ 11600 µM); in data set [2] (setting [7]) it was 463 ± 10 µg/mL; in data set [2] (setting [8]) it was 3930 ± 344 µg/mL (≈ 16600 µM). Also, the “SChCl-G50%/ SChCl-G10%” value in data set [2] was found to be 8.54. For the same molecule, in data set [2], the “SChCl-U50%/ SChCl-U10%” value amounted to 8.48.

On to `CC(C)NCC(O)COc1ccc(CC(N)=O)cc1` (stereo not drawn) [Atenolol, atenolol], for which, in data set [2], the “SChCl-G50%/ SChCl-G10%” value amounted to 1.03 and the “SChCl-U50%/ SChCl-U10%” value is 1.05.

On to `Nc1nnc(-c2cccc(Cl)c2Cl)c(N)n1` [Lamotrigine, lamotrigine], for which the “Solubility, Water” value in data set [1] is given as 0.342 ± 0.0161 ^a g/L. Also, the solubility at 48 h in data set [2] (setting [5]) was 506 ± 17 µg/mL; in data set [2] (setting [6]) it was 2285 ± 18 µg/mL (≈ 8920 µM); in data set [2] (setting [7]), 482 ± 15 µg/mL; in data set [2] (setting [8]), 2126 ± 16 µg/mL (≈ 8300 µM). In data set [2], the “SChCl-G50%/ SChCl-G10%” value is on record as 4.52. Also, the “SChCl-U50%/ SChCl-U10%” value in data set [2] was determined as 4.41.
